The subject of experiment [1] is IIB-Rev34-50 interaction (subdomain IIB of RRE and FITC-labeled Rev34-50 peptide). The experiment can be described thus: Fluorescence anisotropy (FA) inhibition of IIBh-Rev34-50 interaction. The class given is binding, HIV-1. The procedure: Fluorescence Anisotropy (FA).
These experiments were performed and analyzed as described in the state of the art (Prado et al., Biochem Pharmacol 107 (2016) 14-28; Gonzalez-Bulnes et al., Angewandte Chemie-International Edition 52(50) (2013) 13405-13409; Luedtke et al., Biopolymers 70(1) (2003) 103-19), using 96-well plates and Victor X3 or Victor X5 plate readers (Perkin Elmer, Waltham USA). The assays used 10 nM of frevp and 60 nM of IIBh, and included one positive control (a mixture of IIBh and frevp) and two negative controls (frevp and a mixture of IIBh, frevp, and neomycin B). IIBh-frevp inhibition was only considered to exist when anisotropy reached the expected minimum value at the highest inhibitor concentrations. To ensure that there would not be spectral superposition with FITC, anisotropy data was also collected for each of the compounds. None of them emitted fluorescence under the assay conditions. These experiments were repeated three times for each compound.
The capacity of the compounds to inhibit IIB-Rev34-50 interaction was evaluated by means of an assay based on the detection, by means of fluorescence anisotropy (FA), of the shift of an FITC-labeled Rev34-50 peptide from its binding site in subdomain IIB of RRE. The capacity of the compounds to inhibit the formation of the RRE-Rev complex was evaluated by means of an electrophoretic mobility shift assay (EMSA).
Background: In fluorescence polarisation assays a small probe gives low polarisation when free and higher when bound to something large.

The subject of another experiment is HIV-1. As to the kind of experiment: Anti-HIV-1 activity, cell infection assay in MT-2 cells (pNL4.3-Ren supernatants). The class given is cell-based. The procedure: Plasmids, Virus, and Cells for Ex Vivo Assays.
Vectors pNL4.3-Luc and pNL4.3-Ren were generated by cloning luciferase and Renilla genes, respectively, in the nef site of HIV-1 proviral plasmid pNL4.3 (Adachi et al., J Virol 59(2) (1986) 284-91), as described previously in the state of the art (Garcia-Perez et al., J Med Virol 79(2) (2007) 127-37). MT-2 cells (Harada et al., Science 229(4713) (1985) 563-6) and 293T cells (American Type Culture Collection, Rockville, USA) were cultured as described previously (Prado et al., Biochem Pharmacol 107 (2016) 14-28).
Anti-HIV-1 Activity and Cell Toxicity.
The methodology used for performing and analyzing these experiments has been described previously (Prado et al., Biochem Pharmacol 107 (2016) 14-28; Gonzalez-Bulnes et al., Angewandte Chemie-International Edition 52(50) (2013) 13405-13409). Briefly, infectious supernatants were obtained from 293T cells transfected with the pNL4.3-Ren plasmid. MT-2 cells were infected with these supernatants in the presence of the compounds, and the anti-HIV activity was quantified 48 h after infection by determining luciferase activity in the cell lysates. Cell viability was evaluated in cells treated with the same compound concentrations using the CellTiter-Glo assay (Promega). The antiviral activity and cell toxicity results represent the average of at least three independent experiments.

For experiment [2], the system named is HIV-1 LTR promoter (LTR-Luc). As to the kind of experiment: Cell transfection assay, LTR-Luc plasmid in MT-2 cells. The experiment is classed as cell-based. Conditions: for EC50: read-out: EC50 of transfection, LTR; for inhibition of LTR-dependent expression: compared with HIV-1 infection and transfection assays. As for the experimental part:
Cell Transfection Assays.
MT-2 cells were transfected with plasmids containing a luciferase reporter gene the expression of which was under the control of the complete HIV-1 (NL4.3-luc) or HIV-1 LTR promoter (LTR-Luc). After transfection, the cells were treated with different compound concentrations, and the luciferase activity in the cell lysates was quantified 48 h later (Prado et al., Biochem Pharmacol 107 (2016) 14-28; Gonzalez-Bulnes et al., Angewandte Chemie-International Edition 52(50) (2013) 13405-13409).
The antiviral mechanism of compounds 1a and 2a was examined with additional cellular assays.

Experiment [3] has as its system HIV-1 RNA transcripts (RRE-Rev system in a cellular context). The experiment can be described thus: HIV-1 RNA processing analysis by RT-qPCR in MT-2 cells transfected with pNL4.3. The experiment is classed as cell-based. To be noted: 5 and 10 μM. The procedure: HIV-1 RNA Processing Analysis.
MT-2 cells, previously treated for 72 or 96 hours with two different concentrations (5 and 10 μM) of compound 1a or 2a, were transfected with a pNL4.3 plasmid. Total cellular RNA was then isolated, treated with DNase I, and reverse transcribed as described in the state of the art (Prado et al., Biochem Pharmacol 107 (2016) 14-28). The unprocessed, semi-processed, and completely processed HIV-1 RNA transcripts were quantified by means of qPCR in relation to an untreated control obtained, using primers described by Mohammadi et al. (PLoS Pathog 9(1) (2013) e1003161), and GAPDH as endogenous control.
Whether or not compounds 1a and 2a acted in the RRE-Rev system in a cellular context was then verified. After transfecting the cells with a full-length proviral vector, the amounts of unprocessed, semi-processed, and completely processed HIV-1 RNA transcripts were quantified by means of RT-qPCR in the absence and presence of each compound (Prado et al., Biochem Pharmacol 107 (2016) 14-28). Given that Rev indirectly puts the splicing process at a disadvantage by transporting unprocessed or semi-processed viral transcripts from the nucleus to the cytoplasm, the blocking of the RRE-Rev system should increase the levels of completely processed species and reduce the amount of unprocessed or semi-processed HIV-1 transcripts.

[4] abbreviates: Human immunodeficiency virus 1, MT2, 48 h, read-out: EC50 of infection, HIV.
The mark [5] stands for this setting: Human immunodeficiency virus 1, MT2, read-out: EC50 cell infection assay.

Structures are written as SMILES. Like-named read-outs stand apart in the source and are kept apart here.

Broadly, the IC50 is the concentration at which inhibition is half-maximal. The term EC50 denotes the concentration at which the effect is half-maximal.

Turning to `CN(C)CCOc1cc2c(c3ccccc13)-c1ccccc1C2=O` [Compound 1a], the concentration for half-maximal inhibition (IC50) in experiment [1] (range given for FA and EMSA together for 2a and 2b, read-out: IC50 (FA, IIB-Rev34-50 interaction)) came to 6.7 µM. The concentration for a half-maximal effect (EC50) is 830 nM with HIV-1 (setting [4]); 830 nM in the experiment on HIV-1 (setting [5]); 12.5 to 25 µM in experiment [2] (Human immunodeficiency virus 1, MT2, 48 h). Further, the “inhibition of LTR-dependent expression” value in experiment [2] is listed as “weaker inhibition of LTR-dependent expression in relation to the activity detected in the complete HIV-1 transfection assay”. The “effect on pattern of unprocessed, semi-processed and completely processed HIV-1 RNA transcripts” value in experiment [3] is given as “This effect was clearly observed”. Further, in experiment [3], the “levels of viral transcripts in relation to untreated cells” value is “significant reduction in the levels of viral transcripts”.

For the compound `Fc1nc(N2CCNCC2)c(F)c(Sc2ccc(Cl)cc2)c1F` [Compound 2a], in experiment [1] (60 nM IIBh and 10 nM frevp, three independent experiments, read-out: IC50 IIB-Rev34-50), the 50% inhibitory concentration (IC50) is 4.8 µM. The concentration giving a half-maximal response (EC50) in the experiment on HIV-1 (setting [4]) is 2000 nM; in the experiment on HIV-1 (setting [5]), 2000 nM; in experiment [2] (Human immunodeficiency virus 1, MT2, MT-2 cells, LTR-Luc, 48 h) it was 4.4 µM. Besides, the “inhibition of LTR-dependent expression” value in experiment [2] is “inhibited LTR-dependent expression with an EC50 value similar to those measured in the HIV-1 infection and transfection experiments”. Moreover, the “effect on pattern of unprocessed, semi-processed and completely processed HIV-1 RNA transcripts” value in experiment [3] is on record as “did not induce clear changes in the patterns of unprocessed viral transcripts with respect to processed viral transcripts”. Further, in experiment [3], the “levels of viral transcripts in relation to untreated cells” value is “reduced the amount of viral transcripts to a lesser extent with respect to 1a”.

These data come from patent publication US20210267981A1, “COMPOUNDS FOR THE TREATMENT OF HIV INFECTION AND OTHER DISEASES CAUSED BY RNA VIRUSES” (UNIVERSIDAD CATOLICA DE VALENCIA "SAN VICENTE MARTIR", priority 2018, published 2021).
